Data on 13 molecules can be found in patent publication US4914091A, “Esters of cephalosporin derivitives” (American Cyanamid Company, priority 1984, dated 1990).

In general, ED50 refers to the midpoint of the dose-response relation.

Like-named read-outs stand apart in the source and are kept apart here.

The subject of one test is Klebsiella pneumoniae. The test can be described thus: In vivo activity against lethal intraperitoneal Klebsiella pneumoniae infection in mice, single oral or subcutaneous dose. Also on record: species or system Klebsiella pneumoniae (infection in Charles River CD-1 mice). As to conditions: CD-1 mice. The source says:
Other representative compounds of the present invention were similarly tested against a lethal infection of Klebsiella pneumoniae in mice. Charles River CD-1 mice, each weighing about 20 g, were infected intraperitoneally with a lethal dose of Klebsiella pneumoniae. The median effective doses (ED50) in mg/kg were derived from the pooled data of three separate tests (including two range finding tests). The control, 7β-[2-(2-amino thiazol-4-yl)-(Z)-2-methoximinoacetamido]-3-[(1,2,3-thiadiazol-5-yl)-thiomethyl]ceph-3-em-4-carboxylic acid, provides a basis for comparison. All compounds were administered by single subcutaneous dose and single oral dose.

In the next test the test system is Escherichia coli No. 311. The test can be described thus: In vivo activity against lethal intraperitoneal Escherichia coli No. 311 infection in mice, single oral or subcutaneous dose. Details: species or system Escherichia coli (infection in Charles River CD-1 mice). As to conditions: E. coli No. 311, CD-1 mice; for ED50: Escherichia coli, pooled data of three tests (cefaclor: estimated from two separate tests). How it is done:
To establish the pro-drug activity of, for example, the pivaloyloxymethyl ester of 7β-[2-(2-aminothiazol-4-yl)-(Z)-2-methoximinoacetamido]-3-[(1,2,3-thiadiasol-5-yl)-thiomethyl]ceph-3-em-4-carboxylic acid, the unesterified carboxylic acid and cefaclor (as control) were administered by single subcutaneous dose and single oral dose to separate groups of Charles River CD-1 mice, each weighing about 20 g, which mice had been infected intraperitoneally with a lethal dose of Escherichia coli No. 311. The median effective doses (ED50) in mg/kg were derived from the pooled data of three separate tests (including two range finding tests. The results of this testing appear in Table I.

The mark [1] stands for this setting: single oral dose, pooled data of three tests, (95% Conf. Lim.), read-out: ED50, Single Oral Dose.
Where [2] appears, read: sc, single subcutaneous dose, pooled data of three tests, (95% Conf. Lim.), read-out: ED50, Single Subcut. Dose.
Setting [3] is: sc, single subcutaneous dose, read-out: ED50, Single Subcut. Dose.
Setting [4] is: single oral dose, read-out: ED50, Single Oral Dose.

As for `CO/N=C(\C(=O)N[C@@H]1C(=O)N2C(C(=O)OC(C)OC(C)=O)=C(CSc3cnns3)CS[C@H]12)c1csc(N)n1` (stereo partly drawn) [Acetoxyethyl ester, Acetoxyethyl 7β-[2-(2-aminothiazol-4-yl)-(Z)-2-methoximinoacetamido]-3-[(1,2,3-thiadiazol-5-yl)-thiomethyl]ceph-3-em-4-carboxylate], in the test on Klebsiella pneumoniae, the “Ratio Oral ED50 / Subcutaneous ED50” value was 2. In addition, the ED50 is 2 to 4 mg/kg in the test with Klebsiella pneumoniae (setting [1]) and 1 to 2 mg/kg in the test on Klebsiella pneumoniae (setting [2]).
`CO/N=C(\C(=O)N[C@@H]1C(=O)N2C(C(=O)OCOC(C)=O)=C(CSc3cnns3)CS[C@H]12)c1csc(N)n1` [Acetoxymethyl, Acetoxymethyl 7β-[2-(2-aminothiazol-4-yl)-(Z)-2-methoximinoacetamido]-3-[(1,2,3-thiadiazol-5-yl)thiomethyl]ceph-3-em-4-carboxylate]: the “Ratio Oral ED50 / Subcutaneous ED50” value in the test on Klebsiella pneumoniae amounted to 8. The figures for the ED50 with Klebsiella pneumoniae (setting [1]) and in the test on Klebsiella pneumoniae (setting [2]) were 8 to 16 mg/kg and 1 to 2 mg/kg, respectively.
For `CO/N=C(\C(=O)N[C@@H]1C(=O)N2C(C(=O)OCOC(=O)C34CC5CC(CC(C5)C3)C4)=C(CSc3cnns3)CS[C@H]12)c1csc(N)n1` [Adamantylcarbonyl-oxymethyl, Adamantane-1-carbonyloxymethyl-7β-[2-(2-aminothiazol-4-yl)-(Z)-2-methoximinoacetamido]-3-[(1,2,3-thiadiazol-5-yl)-thiomethyl]ceph-3-em-4-carboxylate] the same measures were 2, 2 to 4 mg/kg and 1 to 2 mg/kg.
Take `N[C@@H](C(=O)N[C@@H]1C(=O)N2C(C(=O)O)=C(Cl)CS[C@H]12)c1ccccc1` [Cefaclor]: in the test on Escherichia coli No. 311, the “Ratio Oral ED50 / Subcutaneous ED50” value came out at 2.8. Further, the ED50 is 5.7 mg/kg in the test with Escherichia coli No. 311 (setting [3]) and 16 mg/kg with Escherichia coli No. 311 (setting [4]).
Turning to `CCCCCCCCCCOCOC(=O)C1=C(CSc2cnns2)CS[C@@H]2[C@H](NC(=O)/C(=N\OC)c3csc(N)n3)C(=O)N12` [Declyoxymethyl ester, Decyloxymethyl 7β-[2-(2-aminothiazol-4-yl)-(Z)-2-methoximinoacetamido]-3-[(1,2,3-thiadiazol-5-yl)-thiomethyl]ceph-3-em-4-carboxylate], in the test on Klebsiella pneumoniae, the “Ratio Oral ED50 / Subcutaneous ED50” value amounted to 4. Moreover, the ED50 was in the range of 8 to 16 mg/kg in the test on Klebsiella pneumoniae (setting [1]) and 2 to 4 mg/kg with Klebsiella pneumoniae (setting [2]).
For `CCOC(=O)OC(C)OC(=O)C1=C(CSc2cnns2)CS[C@@H]2[C@H](NC(=O)/C(=N\OC)c3csc(N)n3)C(=O)N12` (stereo partly drawn) [Ethoxycarbonyl-Ethoxyethyl ester] the same measures were 2, 1 to 2 mg/kg and 0.5 to 1 mg/kg.
The corresponding values for `COCOC(=O)C1=C(CSc2cnns2)CS[C@@H]2[C@H](NC(=O)/C(=N\OC)c3csc(N)n3)C(=O)N12` [Methoxymethyl ester, Methoxymethyl 7β-[2-(2-aminothiazol-4-yl)-(Z)-2-methoximinoacetamido]-3-[(1,2,3-thiadiazol-5-yl)-thiomethyl]ceph-3-em-4-carboxylate] are 16, 8 to 16 mg/kg and 0.5 to 1 mg/kg.
For `CCCCCCCCCCCCCC(=O)OCOC(=O)C1=C(CSc2cnns2)CS[C@@H]2[C@H](NC(=O)/C(=N\OC)c3csc(N)n3)C(=O)N12` [Myristoyloxymethyl ester, Myristoyloxymethyl 7β-[2-(2-aminothiazol-4-yl)-(Z)-2-methoximinoacetamido]-3-[(1,2,3-thiadiazol-5-yl)-thiomethyl]ceph-3-em-4-carboxylate] the same measures were 16, 8 to 16 mg/kg and 0.5 to 1 mg/kg.
For `CO/N=C(\C(=O)N[C@@H]1C(=O)N2C(C(=O)OC3OC(=O)c4ccccc43)=C(CSc3cnns3)CS[C@H]12)c1csc(N)n1` (stereo partly drawn) [Phthalidyl ester, Phthalidyl 7β-[2-(2-aminothiazol-4-yl)-(Z)-2-methoximinoacetamido]-3-[(1,2,3-thiadiazol-5-yl)-thiomethyl]ceph-3-em-4-carboxylate], the “Ratio Oral ED50 / Subcutaneous ED50” value in the test with Klebsiella pneumoniae worked out at 16. The results for the ED50 in the test with Klebsiella pneumoniae (setting [1]) and in the test on Klebsiella pneumoniae (setting [2]) were 8 to 16 mg/kg and 0.5 to 1 mg/kg, respectively.
Regarding `CO/N=C(\C(=O)N[C@@H]1C(=O)N2C(C(=O)OCOC(=O)C(C)(C)C)=C(CSc3cnns3)CS[C@H]12)c1csc(N)n1` [Pivaloyloxymethyl ester, Pivaloyloxymethyl 7β-[2-(2-aminothiazol-4-yl)-(Z)-2-methoximinoacetamido]-3-[(1,2,3-thiadiazol-5-yl)-thiomethyl]ceph-3-em-4-carboxylate], the “Ratio Oral ED50 / Subcutaneous ED50” value in the test with Escherichia coli No. 311 is 3.8. For the same molecule, the ED50 is 0.53 mg/kg in the test with Escherichia coli No. 311 (setting [3]) and 2 mg/kg with Escherichia coli No. 311 (setting [4]).
Turning to `CO/N=C(\C(=O)N[C@@H]1C(=O)N2C(C(=O)O)=C(CSc3cnns3)CS[C@H]12)c1csc(N)n1` [Unesterified acid, 7β-[2-(2-aminothiazol-4-yl)-(Z)-2-methoximinoacetamido]-3-[(1,2,3-thiadiazol-5-yl)-thiomethyl]ceph-3-em-4-carboxylic acid, reference compound], the results for the “Ratio Oral ED50 / Subcutaneous ED50” value in the test with Klebsiella pneumoniae and in the test with Escherichia coli No. 311 were 16 and 28, respectively. Further, the median effective dose (ED50) with Klebsiella pneumoniae (setting [1]) is 8 to 16 mg/kg; in the test with Klebsiella pneumoniae (setting [2]), 0.5 to 1 mg/kg; with Escherichia coli No. 311 (setting [3]) it was 0.26 mg/kg; in the test on Escherichia coli No. 311 (setting [4]), 7.2 mg/kg.
Regarding `CO/N=C(\C(=O)N[C@@H]1C(=O)N2C(C(=O)OCOC(=O)c3ccccc3)=C(CSc3cnns3)CS[C@H]12)c1csc(N)n1` [benzoyloxymethyl ester, Benzoyloxymethyl 7β-[2-(2-aminothiazol-4-yl)-(Z)-2-methoximinoacetamido]-3-[(1,2,3-thiadiazol-5-yl)-thiomethyl]ceph-3-em-4-carboxylate], the “Ratio Oral ED50 / Subcutaneous ED50” value with Klebsiella pneumoniae is given as 2. The figures for the ED50 with Klebsiella pneumoniae (setting [1]) and in the test with Klebsiella pneumoniae (setting [2]) were 4 to 8 mg/kg and 2 to 4 mg/kg, respectively.
“Methylthiomethyl 7β-[2-(2-aminothiazol-4-yl)-(Z)-2-methoximinoacetamido]-3-[(1,2,3-thiadiazol-5-yl)-thiomethyl]ceph-3-em and ceph-2-em-carboxylate [methylthiomethyl ester]”: in the test with Klebsiella pneumoniae, the “Ratio Oral ED50 / Subcutaneous ED50” value was determined as 4. The “ED50, Single Oral Dose” value in the test on Klebsiella pneumoniae (single oral dose, pooled data of three tests, (95% Conf. Lim.)) lay within 8 to 16 mg/kg. Moreover, in the test on Klebsiella pneumoniae (single subcutaneous dose, pooled data of three tests, (95% Conf. Lim.)), the “ED50, Single Subcut. Dose” value is 2 to 4 mg/kg.
